{"source": "patent US5087624A", "about": "“Chromic picolinate treatment” (Nutrition 21, priority 1990, dated 1992)", "key": {"[1]": {"conditions": "supplemental trivalent chromium; cited from earlier work"}, "insulin receptors": {"tested_on": "insulin receptors", "experiment": "Binding to insulin receptors"}, "rats": {"tested_on": "rats", "experiment": "Oral toxicity experiment", "assay_type": "in vivo, rat", "experimental": "In a toxicity experiment, rats weighing a mean of 223.4 g were given an oral suspension of 100 mg, 300 mg and 500 mg chromic tripicolinate in water. […] The tests were stopped at 500 mg because it was impossible to obtain a workable suspension beyond this level."}, "[2]": {"tested_on": "Glucose Tolerance Factor activity", "experiment": "Glucose Tolerance Factor activity"}, "[3]": {"experiment": "Cross-over study in subjects with adult onset diabetes mellitus (EXAMPLE 4)", "assay_type": "in vivo, human", "source_text": "Normal values are 5.5% to 7.5%."}, "insulin": {"tested_on": "insulin", "experiment": "Binding to insulin"}, "[4]": {"experiment": "Double-blind cross-over study of serum lipids (EXAMPLE 3)", "assay_type": "in vivo, human", "experimental": "The placebo contained only 5 mg calcium phosphate. […] Compliance by subjects was monitored by capsule count. The foregoing study protocol is illustrated in FIG. 1.\nStudent's t test and p values were determined with the program WORMSTAT^TM (available from Small Business Computers, New England, U.S.A.)."}, "[5]": {"experiment": "Absorption of orally given Cr-51 labelled chromium: radioactivity in liver and kidney", "assay_type": "in vivo, male Sprague-Dawley rats", "conditions": "relative to chromic chloride, from Table 1", "source_text": "The solution was cooled to room temperature before use."}, "[6]": {"experiment": "Anabolic effect in male weight-training students (EXAMPLE 5)", "assay_type": "in vivo, human", "experimental": "This study was performed to evaluate the anabolic effect of chromic tripicolinate in male subjects.\nAt the start of the study, 10 male university students enrolled in weight training classes, were given, at random, a 40-day supply of capsules that contained either placebo (5 mg of calcium phosphate) or chromic tripicolinate (1.6 mg chromic tripicolinate admixed with 5 mg of […], which provided 200 ug of chromium). The identity of the capsules was known only to an individual who was not in any way involved in the study. During the 40-day period, each of the volunteers followed a prescribed weight lifting protocol for a total of 3 hours per week. Measurements taken at the beginning and again at the end of the study included various skin-fold thicknesses, bicep and calf circumferences, and body weight. Percent body fat was derived from the sum of the triceps, subscapular and chest skinfolds. Lean body mass was derived from anthropometrically-determined percent body fat: weight -(weight ×percent body fat)."}, "[7]": {"conditions": "start of 42-day treatment (baseline), mean ± SD of 28 subjects"}}, "note": "Several values for one entry are separate records, joined by “and”; a condition that tells them apart may be missing. Equal entries are not always repeated. Entries after “also recorded” stand apart in the source; their conditions may differ."}
{"compound": "[Cl][Cr]([Cl])[Cl]", "note": "[chromic chloride]", "values": [{"measurement": "risk factors associated with maturity-onset diabetes and cardiovascular diseases", "setting": "[1]", "value": "associated with improvements of risk factors"}]}
{"compound": "chromic tripicolinate", "values": [{"measurement": "binding to insulin receptors", "setting": "insulin receptors", "value": "binds to insulin and insulin receptors"}, {"measurement": "dose to be ingested before any effects would be observed", "setting": "rats; 70 Kg human, extrapolated from rat", "value": "> 156", "unit": "grams"}, {"measurement": "deaths", "setting": "rats; oral suspension 100 mg, 300 mg and 500 mg in water", "value": "No deaths occurred"}, {"measurement": "oral lethal dose", "setting": "rats; rats, oral", "value": "> 2200", "unit": "mg/kg"}, {"measurement": "Glucose Tolerance Factor activity", "setting": "[2]", "value": "has Glucose Tolerance Factor activity"}, {"measurement": "HDL trend", "setting": "[3]; P was not <0.05", "value": "trends were favorable"}, {"measurement": "cholesterol trend", "setting": "[3]; P was not <0.05", "value": "trends were favorable"}, {"measurement": "LDL decrease", "setting": "[3]; diabetic subjects", "value": 8, "unit": "%"}, {"measurement": "blood pressure change", "setting": "[3]; diabetic subjects", "value": "no significant changes"}, {"measurement": "fasting glucose change", "setting": "[3]; diabetic subjects", "value": "significant decreases"}, {"measurement": "glycosylated hemoglobin change", "setting": "[3]; diabetic subjects", "value": "significant decreases"}, {"measurement": "heart rate change", "setting": "[3]; diabetic subjects", "value": "no significant changes"}, {"measurement": "temperature change", "setting": "[3]; diabetic subjects", "value": "no significant changes"}, {"measurement": "weight change", "setting": "[3]; diabetic subjects", "value": "no significant changes"}, {"measurement": "Hemoglobin A1 C decrease", "setting": "[3]; treatment versus placebo groups", "value": 12, "unit": "%"}, {"measurement": "binding to insulin", "setting": "insulin", "value": "binds to insulin"}, {"measurement": "Apolipoprotein B reduction", "setting": "[4]; 28 subjects, 42 days", "value": 16, "unit": "%"}, {"measurement": "LDL-cholesterol decrease", "setting": "[4]; 28 subjects, 42 days", "value": 10, "unit": "%"}, {"measurement": "Total cholesterol decrease", "setting": "[4]; 28 subjects, 42 days", "value": 7, "unit": "%"}, {"measurement": "LDL-cholesterol change", "setting": "[4]; 28 subjects, 42 days, p<0.001", "value": "significant (p<0.001) reductions"}, {"measurement": "Total cholesterol change", "setting": "[4]; 28 subjects, 42 days, p<0.001", "value": "significant (p<0.001) reductions"}, {"measurement": "Apolipoprotein B change", "setting": "[4]; 28 subjects, p=0.001", "value": "decreased significantly"}, {"measurement": "Apolipoprotein A1 change", "setting": "[4]; 28 subjects, p=0.003", "value": "significantly elevated"}, {"measurement": "fine rash about forearms", "setting": "[4]; 200 micrograms Cr daily", "value": "one subject on chromium supplementation"}, {"measurement": "mouth ulcers", "setting": "[4]; 200 micrograms Cr daily", "value": "the other on chromium supplement"}, {"measurement": "blood pressure change", "setting": "[4]; 42 days", "value": "No significant changes"}, {"measurement": "heart rate change", "setting": "[4]; 42 days", "value": "No significant changes"}, {"measurement": "serum triglycerides change", "setting": "[4]; 42 days", "value": "No significant changes"}, {"measurement": "temperature change", "setting": "[4]; 42 days", "value": "No significant changes"}, {"measurement": "weight change", "setting": "[4]; 42 days", "value": "No significant changes"}, {"measurement": "Apo B, Chng.", "setting": "[4]; 42 days, 28 subjects, p = .001", "value": -25, "unit": "mg/dL"}, {"measurement": "Apo A, Chng.", "setting": "[4]; 42 days, 28 subjects, p = .003", "value": "+16 mg/dl"}, {"measurement": "Apo B, Final", "setting": "[4]; end of 42-day treatment, mean ± SD of 28 subjects", "value": 130, "unit": "mg/dL"}, {"measurement": "LDL-cholesterol change", "setting": "[4]; final 42 days, placebo-first group, p=0.003", "value": "decreased significantly"}, {"measurement": "Total cholesterol change", "setting": "[4]; final 42 days, placebo-first group, p=0.009", "value": "decreased significantly"}, {"measurement": "Apolipoprotein B change", "setting": "[4]; first 6-week period, chromic tripicolinate-first group, p=0.003", "value": "significantly decreased"}, {"measurement": "Total cholesterol change", "setting": "[4]; first 6-week period, chromic tripicolinate-first group, p=0.007", "value": "significantly decreased"}, {"measurement": "LDL-cholesterol change", "setting": "[4]; first 6-week period, chromic tripicolinate-first group, p=0.015", "value": "significantly decreased"}, {"measurement": "Apolipoprotein A1 change", "setting": "[4]; first 6-week period, chromic tripicolinate-first group, p=0.047", "value": "significantly elevated"}, {"measurement": "other abnormalities", "setting": "[4]; in vivo", "value": "No other abnormalities were noted"}, {"measurement": "subjects with decreased LDL-cholesterol", "setting": "[4]; of final 28 subjects", "value": 20}, {"measurement": "subjects with lower total cholesterol", "setting": "[4]; of final 28 subjects", "value": 22}, {"measurement": "subjects with total cholesterol elevated less than 0.1 mmole/1 (5 mg/dl)", "setting": "[4]; of final 28 subjects", "value": 4}, {"measurement": "subjects with unchanged LDL-cholesterol", "setting": "[4]; of final 28 subjects", "value": 3}, {"measurement": "subjects with unchanged total cholesterol", "setting": "[4]; of final 28 subjects", "value": 2}, {"measurement": "HDL-cholesterol change", "setting": "[4]; p>0.05", "value": "increased slightly but not significantly"}, {"measurement": "Apolipoprotein B change", "setting": "[4]; placebo-first group, after supplementation, p=0.072", "value": "decreased, but not significantly"}, {"measurement": "Apolipoprotein A1 change", "setting": "[4]; placebo-first group, supplementation period, p=0.007", "value": "increased significantly"}, {"measurement": "Apo A, Init", "setting": "[4]; [7]", "value": "147 ± 28", "unit": "mg/dL"}, {"measurement": "Apo B, Init", "setting": "[4]; [7]", "value": "155 ± 50 mg/dL and 155 mg/dL"}, {"measurement": "Apolipoprotein A1 change, summary", "setting": "[4]; summary", "value": "elevated; also recorded: significant elevation"}, {"measurement": "Apolipoprotein B change, summary", "setting": "[4]; summary", "value": "decreased; also recorded: significant reduction"}, {"measurement": "LDL-cholesterol change, summary", "setting": "[4]; summary of Examples 3 and 4", "value": "decreased"}, {"measurement": "Total cholesterol change, summary", "setting": "[4]; summary of Examples 3 and 4", "value": "decreased"}, {"measurement": "rate of absorption greater than that of chromic chloride", "setting": "[5]", "value": "about 4 times"}, {"measurement": "bicep circumference increase", "setting": "[6]; 40 days, P=0.0056", "value": "1.4±0.45", "unit": "cm"}, {"measurement": "calculated lean body mass increase", "setting": "[6]; 40 days, P=0.017", "value": 1.6, "unit": "kg"}, {"measurement": "increase in lean body mass compared with placebo group", "setting": "[6]; Student's t test, P=0.0198", "value": "significantly greater"}]}
